Like-named read-outs stand apart in the source and are kept apart here.
Assays:
HIV-1 RT = HIV-1 RT (Human immunodeficiency virus type 1 group M subtype B, UniProt P04585); experiment: Control experiments on HIV-1 RT activity
Jurkat E6-1 cells = details: Jurkat E6-1, 500 μg/ml
[1] = system: M1 satellite virus dsRNA genome; experiment: dsRNA extraction and TAE-agarose gel of Killer yeast cells; assay type: cell-based; details: gentamicin treated Killer− cells, ~10-times more RNA loaded than control
[2] = system: endogenous yeast "Killer" virus; experiment: Yeast Killer virus maintenance assay after serial passage; assay type: cell-based; details: serial passage every 24 h for eight days
HIV-1 −1 PRF signal = assay type: cell-based, human; details: for stimulation of HIV-1 directed −1 PRF: 5-500 μg/ml; for dose dependence of HIV-1 mediated −1 PRF: Example 2
HIV-1 strain LAI = experiment: Limit-dilution titer of infectious virus with p24 antigen capture assay; assay type: cell-based; details: Jurkat E6-1, 250 μg/ml, days 4-10 post infection
Protocol: (A) Jurkat E6-1 cells were grown in RPMI-1640 media supplemented with 10% FBS. Cells were infected with HIV-1 (LAI) at an MOI of 0.01 in media containing gentamicin at 0, 50, 250, or 500 μg/ml. Infected or mock infected cells were maintained in the above media containing the corresponding concentration of gentamicin. Clarified viral supernatant was assayed for RT activity on days 2, 4, 6, 8, and 10 post infection. […] Results are from an average of 3 experiments with error bars corresponding to standard deviation values. (B) Clarified viral supernatants from days 4, 6, 8, and 10 above were used to perform limit-dilution assays in order to determine the level of infectious virus produced in untreated and gentamicin treated cells. A p24 antigen capture assay was used to detect virus. Results are reported as TCID50/ml vs. day post infection. The antigen capture assay was repeated with similar results while the RT activity assay was repeated twice with similar results.
Cells and viruses. Jurkat E6-1 cells (obtained through the ATCC) were cultured in RPMI-1640 supplemented with 10% fetal bovine serum at 37° C. and 5% CO2 according to the ATCC data sheet. HIV-1 strain LAI was obtained through the NIH AIDS Research and Reference Reagent Program.
HIV infection of Jurkat cells. All experiments were performed with Jurkat cells in 24-well plates and in duplicate. […]

[3] = system: SARS-CoV frameshift signal; assay type: cell-based, human
[4] = HeLa cells, 5, 25, 50, 250 and 500 ug/ml
[5] = Jurkat cells, 5, 25, 50, 250 and 500 ug/ml

gentamicin
effect on HIV-1 RT activity (HIV-1 RT): did not affect HIV-1 RT activity | cell toxicity (Jurkat E6-1 cells): Significant cell toxicity | cell toxicity (Jurkat E6-1 cells; listed as Gentamicin): significant cell toxicity | presence of M1 dsRNA genome [1]: no longer present | Killer phenotype maintenance ([2]; 50 μg/ml): rapid loss of the Killer phenotype | Killer phenotype maintenance ([2]; 500 μg/ml): rapid loss of the Killer phenotype | HIV-1 directed −1 PRF at the concentration normally used in cell culture (HIV-1 −1 PRF signal; HeLa CD4+ and Jurkat cells, 50 μg/ml): increased −1 PRF was observed | stimulation of HIV-1 directed −1 PRF (HIV-1 −1 PRF signal; HeLa CD4+ cells): about 40% | stimulation of HIV-1 directed −1 PRF (HIV-1 −1 PRF signal; HeLa CD4+ cells, listed as Gentamicin): up to 40% | dose dependence of HIV-1 mediated −1 PRF (HIV-1 −1 PRF signal; [4]): dose-dependently increased | dose dependence of HIV-1 mediated −1 PRF (HIV-1 −1 PRF signal; [5]): dose-dependently increased | stimulation of HIV-1 directed −1 PRF (HIV-1 −1 PRF signal; Jurkat cells): about 40% | stimulation of HIV-1 directed −1 PRF (HIV-1 −1 PRF signal; Jurkat cells, listed as Gentamicin): up to 40% | infectious virus in cell-free supernatant (HIV-1 strain LAI): no infectious virus was made | dose dependence of SARS-CoV mediated −1 PRF [3, 4]: dose-dependently increased | dose dependence of SARS-CoV mediated −1 PRF [3, 5]: dose-dependently increased
